Structures can show the parent of a compound that is named as a salt.
Each compound was assayed against T1, HIV integrase (Human immunodeficiency virus type 1 group M subtype B, UniProt P12497, F1332H) (assay: Determination of enzyme (HIV integrase) inhibitory activity). Details: recombinant HIV integrase (F185H), strand transfer ELISA, absorbance at 450 nm.
T1 construct: HIV integrase full length gene; made in house; host or cells: Escherichia coli BL21(DE3), plasmid pET21a-INH
Type: biochemical
Method in brief: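 Full-length integrase with F185H, expressed in E. coli and purified, was reacted for 60 min at 37 °C with compound and biotinylated donor DNA bound to streptavidin plates. Target DNA was added for 10 min, then anti-digoxigenin-peroxidase detection at A450; IC50 from % inhibition versus enzyme-free blank.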
In the case of `CC(C)(C)C(=O)c1cn2ccn(Cc3ccc(F)cc3)c(=O)c2c(O)c1=O` [Example 251, 7-(2,2-dimethylpropionyl)-2-(4-fluorobenzyl)-9-hydroxy-2H-pyrido[1,2-a]pyrazine-1,8-dione hydrochloride], the IC50 is reported as < 10 nM.
With `O=c1c(-c2nccs2)cn2ccn(Cc3ccc(F)cc3)c(=O)c2c1O` [Example 252, 2-(4-fluorobenzyl)-9-hydroxy-7-(thiazol-2-yl)-2H-pyrido[1,2-a]pyrazine-1,8-dione hydrochloride] the IC50 was < 10 nM.
With `CNC(=O)c1cn2ccn(Cc3ccc(F)cc3)c(=O)c2c(O)c1=O` [Example 253, N-methyl-2-(4-fluorobenzyl)-9-hydroxy-1,8-dioxo-1,8-dihydro-2H-pyrido[1,2-a]pyrazine-7-carboxamide] the IC50 was < 10 nM.
For `CC(C)(C)C(=O)c1cn2ccn(CCCc3c(F)cccc3Cl)c(=O)c2c(O)c1=O` [Example 254, 2-[3-(2-chloro-6-fluorophenyl)propyl]-7-(2,2-dimethylpropionyl)-9-hydroxy-2H-pyrido[1,2-a]pyrazine-1,8-dione hydrochloride], the IC50 was < 10 nM.
For `Cc1csc(-c2cn3c(c(O)c2=O)C(=O)N(Cc2cccc(Cl)c2)CC3)n1` [Example 255, 2-(3-chlorobenzyl)-9-hydroxy-7-(4-methylthiazol-2-yl)-3,4-dihydro-2H-pyrido[1,2-a]pyrazine-1,8-dione], the IC50 was < 10 nM.
With `CCCC(=O)Nc1cn2ccn(Cc3cccc(Cl)c3)c(=O)c2c(O)c1=O` [Example 256, N-[2-(3-chlorobenzyl)-9-hydroxy-1,8-dioxo-1,8-dihydro-2H-pyrido[1,2-a]pyrazin-7-yl]butyramide] the IC50 was < 10 nM.
`O=C(Nc1cn2ccn(Cc3cccc(Cl)c3)c(=O)c2c(O)c1=O)c1ccccc1` [Example 257, N-[2-(3-chlorobenzyl)-9-hydroxy-1,8-dioxo-1,8-dihydro-2H-pyrido[1,2-a]pyrazin-7-yl]benzamide] was tested, and the IC50 was < 10 nM.
`O=C(CCc1ccccc1)Nc1cn2ccn(Cc3cccc(Cl)c3)c(=O)c2c(O)c1=O` [Example 258, N-[2-(3-chlorobenzyl)-9-hydroxy-1,8-dioxo-1,8-dihydro-2H-pyrido[1,2-a]pyrazin-7-yl]-3-phenylpropionamide] was tested, and the IC50 was < 10 nM.
For `CC(=O)N(C)c1cn2ccn(Cc3cccc(Cl)c3)c(=O)c2c(O)c1=O` [Example 259, N-[2-(3-chlorobenzyl)-9-hydroxy-1,8-dioxo-1,8-dihydro-2H-pyrido[1,2-a]pyrazin-7-yl]-N-methylacetamide], the IC50 was < 10 nM.
For `COCC(=O)Nc1cn2ccn(Cc3cccc(Cl)c3)c(=O)c2c(O)c1=O` [Example 260, N-[2-(3-chlorobenzyl)-9-hydroxy-1,8-dioxo-1,8-dihydro-2H-pyrido[1,2-a]pyrazin-7-yl]-2-methoxyacetamide], the IC50 was < 10 nM.
Work on `COC(=O)c1cn2c(c(O)c1=O)C(=O)N(Cc1cccc(Cl)c1)CC2` [Example 261, methyl 2-(3-chlorobenzyl)-9-hydroxy-1,8-dioxo-1,3,4,8-tetrahydro-2H-pyrido[1,2-a]pyrazine-7-carboxylate] yielded an IC50 of 10 to 100 nM.
`CN(C)C(=O)Nc1cn2ccn(Cc3cccc(Cl)c3)c(=O)c2c(O)c1=O` [Example 262, 3-[2-(3-chlorobenzyl)-9-hydroxy-1,8-dioxo-1,8-dihydro-2H-pyrido[1,2-a]pyrazin-7-yl]-1,1-dimethylurea] was tested, and the IC50 was < 10 nM.
With `COC(=O)Nc1cn2ccn(Cc3cccc(Cl)c3)c(=O)c2c(O)c1=O` [Example 263, methyl[2-(3-chlorobenzyl)-9-hydroxy-1,8-dioxo-1,8-dihydro-2H-pyrido[1,2-a]pyrazin-7-yl]carbamate] the IC50 was < 10 nM.
In the case of `O=C1c2c(O)c(=O)c(-c3nccs3)cn2CCN1CCCc1c(F)cccc1Cl` [Example 264, 2-[3-(2-chloro-6-fluorophenyl)propyl]-9-hydroxy-7-(thiazol-2-yl)-3,4-dihydro-2H-pyrido[1,2-a]pyrazine-1,8-dione], the IC50 is reported as < 10 nM.
With `CC(=O)C(=O)Nc1cn2ccn(Cc3cccc(Cl)c3)c(=O)c2c(O)c1=O` [Example 265, N-[2-(3-chlorobenzyl)-9-hydroxy-1,8-dioxo-1,8-dihydro-2H-pyrido[1,2-a]pyrazin-7-yl]-2-oxopropionamide] the IC50 was < 10 nM.
In the case of `O=C(NCc1ccccc1)c1cn2c(c(O)c1=O)C(=O)N(Cc1cccc(Cl)c1)CC2` [Example 266, N-benzyl-2-(3-chlorobenzyl)-9-hydroxy-1,8-dioxo-1,3,4,8-tetrahydro-2H-pyrido[1,2-a]pyrazine-7-carboxamide], the IC50 is reported as < 10 nM.
In the case of `O=C1c2c(O)c(=O)c(-c3cc[nH]n3)cn2CCN1Cc1cccc(Cl)c1` [Example 267, 2-(3-chlorobenzyl)-9-hydroxy-7-(1H-pyrazol-3-yl)-3,4-dihydro-2H-pyrido[1,2-a]pyrazine-1,8-dione], the IC50 is reported as 10 to 100 nM.
In the case of `O=C1c2c(O)c(=O)c(-c3ccncn3)cn2CCN1Cc1cccc(Cl)c1` [Example 268, 2-(3-chlorobenzyl)-9-hydroxy-7-(pyrimidin-4-yl)-3,4-dihydro-2H-pyrido[1,2-a]pyrazine-1,8-dione], the IC50 is reported as < 10 nM.
With `O=C(NCc1cccc2ccccc12)c1cn2c(c(O)c1=O)C(=O)N(Cc1cccc(Cl)c1)CC2` [Example 269, N-(naphthalen-1-ylmethyl)-2-(3-chlorobenzyl)-9-hydroxy-1,8-dioxo-1,3,4,8-tetrahydro-2H-pyrido [1,2-a]pyrazine-7-carboxamide] the IC50 was < 10 nM.
Compound `O=C(NC(c1ccccc1)c1ccccc1)c1cn2c(c(O)c1=O)C(=O)N(Cc1cccc(Cl)c1)CC2` [Example 270, N-benzhydryl-2-(3-chlorobenzyl)-9-hydroxy-1,8-dioxo-1,3,4,8-tetrahydro-2H-pyrido[1,2-a]pyrazine-7-carboxamide] has an IC50 of 10 to 100 nM.
For `O=C1c2c(O)c(=O)c(-c3ncccn3)cn2CCN1Cc1cccc(Cl)c1` [Example 271, 2-(3-chlorobenzyl)-9-hydroxy-7-(pyrimidin-2-yl)-3,4-dihydro-2H-pyrido[1,2-a]pyrazine-1,8-dione hydrochloride], the IC50 was 10 to 100 nM.
Work on `CC(C)(C(=O)c1cn2c(c(O)c1=O)C(=O)N(Cc1cccc(Cl)c1)CC2)c1ccccc1` [Example 272, 2-(3-chlorobenzyl)-9-hydroxy-7-(2-methyl-2-phenylpropionyl)-3,4-dihydro-2H-pyrido[1,2-a]pyrazine-1,8-dione] yielded an IC50 of 10 to 100 nM.
In the case of `CC(C)(C)c1ccc(CNC(=O)c2cn3c(c(O)c2=O)C(=O)N(Cc2cccc(Cl)c2)CC3)cc1` [Example 273, N-(4-tert-butylbenzyl)-2-(3-chlorobenzyl)-9-hydroxy-1,8-dioxo-1,3,4,8-tetrahydro-2H-pyrido [1,2-a] pyrazine-7-carboxamide], the IC50 is reported as 10 to 100 nM.
`O=C(Nc1cn2ccn(Cc3cccc(Cl)c3)c(=O)c2c(O)c1=O)C1CCCC1` [Example 274, N-[2-(3-chlorobenzyl)-9-hydroxy-1,8-dioxo-1,8-dihydro-2H-pyrido[1,2-a]pyrazin-7-yl)cyclopentanecarboxamide] gave an IC50 of 10 to 100 nM.
For `O=C(Cc1ccc(F)cc1)Nc1cn2ccn(Cc3cccc(Cl)c3)c(=O)c2c(O)c1=O` [Example 275, N-[2-(3-chlorobenzyl)-9-hydroxy-1,8-dioxo-1,8-dihydro-2H-pyrido[1,2-a]pyrazin-7-yl]-2-(4-fluorophenyl)acetamide], the IC50 was < 10 nM.
For `CC(C)(C)C(=O)Nc1cn2ccn(Cc3cccc(Cl)c3)c(=O)c2c(O)c1=O` [Example 276, N-[2-(3-chlorobenzyl)-9-hydroxy-1,8-dioxo-1,8-dihydro-2H-pyrido[1,2-a]pyrazin-7-yl]-2,2-dimethylpropionamide], the IC50 was < 10 nM.

Reference: patent US7211572B2 (Japan Tobacco Inc., priority 2003, dated 2007)
